Measurements taken from article PMC2062997, “Effects of impaired renal function on the pharmacokinetics of raltitrexed (Tomudex ZD1694)” (British Journal of Cancer, 1998).

What was measured:
[1] = Single-dose plasma pharmacokinetics of raltitrexed in cancer patients (radioimmunoassay, three-compartment model); format: in vivo, human
Protocol: British Journal of Cancer (1 998) 78(9). 1188-1193 C 1998 Cancer Research Campaign Effects of impaired renal function on the pharmacokinetics of raltitrexed (Tomudex ZDI 694) I Judson', T Maughan2, P Beale', J Primrose3, P Hoskin4, J HanweIll, C Berry1, M Walker5 and F Sutcliffe5 lInstitute of Cancer Research. Sutton, Surrey SM2 5NG, UK; Welindre Hospital, Whitchurch. Cardiff CF4, UK; 3Souftampton General Hospital, Southampton S09 4XY. UK: 'Mount Vernon Hospital, Middlesex HA6 2RN. UK; 5Zeneca Pharmaceutcals Macclesfield. Cheshire SK10 4TG. UK Summary This open-label, non-randomized, parallel-group trial investigated the pharmacokinetics of raltitrexed (Tomudex, formerly ZD1 694) after a single intravenous dose of 3.0 mg m-2, comparing eight cancer patients with mild to moderate renal impairment (creatinine clearance 25-65 ml min-') with eight cancer patients with normal renal function (creatinine clearance >65 ml min-'). The primary end points were area under the plasma raltitrexed concentration-vime curve from the start of the infusion to the last determined concentration (AUCo_) and AUC to infinity (AUCo); secondary end points were peak corncentrations of ralftitrexed (C,n,) and elimination half-life (t,>). The groups were compared statistically using analysis of covariance. The AUCs were greater for patients with renal impairment than for patients with normal renal function (2452.2 compared with 1247.3 ng h ml-' for AUCo._. (ratio 1.97; 95% Cl 1.36-2.84); 2961.5 compared with 1457.0 ng h ml-' for AUCo_ (ratio 2.03; 1.25-3.29). These differences were statistically significant (P = 0.002 and P = 0.008 for AUC, and AUCo_ respectively. Terminal half-life was longer for the renally impaired patients (271.2 compared with 143.3; P = 0.030). There was no significant statistical difference between the groups for C, (652.9 compared with 564.7 ng ml-' for patients with impaired and normal renal function respectively: ratio 1.16; 0.91-1.46; P=0.204). There was a clear relationship between raltfitrexed clearance and creatinine clearance. Adverse events, severe (WHO grade 3 or 4) toxicity and hospitalization due to adverse events were more frequent in the group with renal impairment. Therefore, a reduction in ralftitrexed dose and increased interval between doses is recommended for patients with mild to moderate renal impairment. Keywords: pharmacokinetics; thymidylate synthase; phase I trial; raltitrexed; renal impairment Raltitrexed (Tomudex. ZD1694: Zeneca Limited) is a cytotoxic agent w-hich acts by direct and specific inhibition of thymidydlate synthase. the enzyme catalysing a critical step in de novo DNA synthesis. i.e. the production of thymidine monophosphate from deoxvuridine monophosphate. Some clinically effective anti- cancer agents. such as 5-fluorouracil and methotrexate. act in part by inhibiting thymidylate synthase but also have effects on other enzyme pathways. xvhich may contribute to their anti-tumour activity and obserned toxicity profiles. Raltitrexed inhibits thymidylate synthase selectively in vitro (Jackman et al. 1991). […] The poly- glutamates are retained in cells and cause prolonged inhibition of th midv late synthase. which leads to DNA fragmentation and cell death. […] The mean apparent half-life of the terminal (gamma) phase (tl, ,) was 50-lOO h (Clarke et al. 1996). This prolonged t1, may represent hydrolysis of the polvalutamated Received 17 November 1997 Revised 4 Apnl 1998 Accepted 14 Apnl 1998 Correspondence to: IR Judson, CRC Centre for Cancer Therapeutics. The Institute of Cancer Research. Block E. 15 Cotswold Road. Belmont. Sutton. Surrey SM2 5NG. UK forms and release of raltitrexed from tissues into the circulation. and allow s the druc to be administered as a single dose once ev er 3 weeks. In the phase I trial. a dose and schedule of 3.0mg m-' every 3 weeks was identified as suitable for phase H inxvestigation. […]

[2] = Safety: adverse events and WHO-graded toxicity in cancer patients; format: in vivo
Protocol: British Journal of Cancer (1 998) 78(9). 1188-1193 C 1998 Cancer Research Campaign Effects of impaired renal function on the pharmacokinetics of raltitrexed (Tomudex ZDI 694) I Judson', T Maughan2, P Beale', J Primrose3, P Hoskin4, J HanweIll, C Berry1, M Walker5 and F Sutcliffe5 lInstitute of Cancer Research. Sutton, Surrey SM2 5NG, UK; Welindre Hospital, Whitchurch. Cardiff CF4, UK; 3Souftampton General Hospital, Southampton S09 4XY. UK: 'Mount Vernon Hospital, Middlesex HA6 2RN. UK; 5Zeneca Pharmaceutcals Macclesfield. Cheshire SK10 4TG. UK Summary This open-label, non-randomized, parallel-group trial investigated the pharmacokinetics of raltitrexed (Tomudex, formerly ZD1 694) after a single intravenous dose of 3.0 mg m-2, comparing eight cancer patients with mild to moderate renal impairment (creatinine clearance 25-65 ml min-') with eight cancer patients with normal renal function (creatinine clearance >65 ml min-'). The primary end points were area under the plasma raltitrexed concentration-vime curve from the start of the infusion to the last determined concentration (AUCo_) and AUC to infinity (AUCo); secondary end points were peak corncentrations of ralftitrexed (C,n,) and elimination half-life (t,>). The groups were compared statistically using analysis of covariance. The AUCs were greater for patients with renal impairment than for patients with normal renal function (2452.2 compared with 1247.3 ng h ml-' for AUCo._. (ratio 1.97; 95% Cl 1.36-2.84); 2961.5 compared with 1457.0 ng h ml-' for AUCo_ (ratio 2.03; 1.25-3.29). These differences were statistically significant (P = 0.002 and P = 0.008 for AUC, and AUCo_ respectively. Terminal half-life was longer for the renally impaired patients (271.2 compared with 143.3; P = 0.030). There was no significant statistical difference between the groups for C, (652.9 compared with 564.7 ng ml-' for patients with impaired and normal renal function respectively: ratio 1.16; 0.91-1.46; P=0.204). There was a clear relationship between raltfitrexed clearance and creatinine clearance. Adverse events, severe (WHO grade 3 or 4) toxicity and hospitalization due to adverse events were more frequent in the group with renal impairment. Therefore, a reduction in ralftitrexed dose and increased interval between doses is recommended for patients with mild to moderate renal impairment. Keywords: pharmacokinetics; thymidylate synthase; phase I trial; raltitrexed; renal impairment Raltitrexed (Tomudex. ZD1694: Zeneca Limited) is a cytotoxic agent w-hich acts by direct and specific inhibition of thymidydlate synthase. the enzyme catalysing a critical step in de novo DNA synthesis. i.e. the production of thymidine monophosphate from deoxvuridine monophosphate. […]

Cc1nc2ccc(CN(C)c3ccc(C(=O)N[C@@H](CCC(=O)O)C(=O)O)s3)cc2c(=O)[nH]1 [raltitrexed]
Cmax estimated ratio (impaired:normal renal function) ([1]; 95% CI 0.91-1.46, P = 0.204): 1.16
AUC0-infinity estimated ratio (impaired:normal renal function) ([1]; 95% CI 1.25-3.29, P = 0.008): 2.03
AUC0-tldc estimated ratio (impaired:normal renal function) ([1]; 95% CI 1.36-2.84, P = 0.002): 1.97
AUC ([1]; both sexes, human, in vivo, AUC0-tldc, adjusted geometric least squares mean): 2450 ng·h/mL
Cmax ([1]; both sexes, human, in vivo, Cmax, adjusted geometric least squares mean): 565 ng/mL
Cmax ([1]; both sexes, human, in vivo, iv, 3 mg, Cmax (mean; SD)): 676 ng/mL
Tmax ([1]; both sexes, human, in vivo, iv, tmax (median and range)): 0.267 h
half-life ([1]; both sexes, human, in vivo, t1/2 gamma (terminal half-life), adjusted least squares mean): 271 h
Cmax, adjusted geometric least squares mean ([1]; both, human, in vivo): 652.9 ng/mL
t1/2 gamma (terminal half-life), adjusted least squares mean ([1]; both, human, in vivo): 143.3 h
tmax (median and range) ([1]; both, human, in vivo, iv): 20 (10-30) min
Cmax (mean; SD) ([1]; human, in vivo, iv, 3 mg): 567.1 ? 62.7 ng ml-1
Pain, number of patients ([2]; both, human, in vivo): 3 patients
WHO grade 3 or 4 drug-related toxicity ([2]; both, human, in vivo): No WHO grade 3 or 4 drug-related toxicity was reported
WHO grade 3 or 4 toxicity ([2]; both, human, in vivo): grade 3 or 4 toxicity was observed
Serious adverse events ([2]; renally impaired patient: Cr-EDTA clearance 28, calculated creatinine clearance 23.2 ml min-1): Death
